From US8741882B2, “Anti-diabetic compounds” (Sen Capital, LLC., priority 2012, dated 2014)
Structures can show the parent of a compound that is named as a salt.

Key:
ICR mouse = test: Animal test: blood glucose after oral glucose load in mice dosed by oral gavage; type: in vivo; settings: for response versus vehicle control (negative group), p<0.05 / Means at 20 min. (mean value of glucose level at 20 min. minus glucose level at time zero, before glucose dosing) / blood glucose level as compared with the Vehicle group during the test period (FIG. 5): ICR mouse; for response versus vehicle control (negative group), p<0.05: Metformin Hydrochloride 150 mg/kg, Compound 2 525 and 1050 mg/kg; for Means at 20 min. (mean value of glucose level at 20 min. minus glucose level at time zero, before glucose dosing): 1.5 g/kg glucose 30 min after dosing, in mg/dL; for blood glucose level as compared with the Vehicle group during the test period (FIG. 5): oral gavage, doses as in Table 1
Protocol: Approximately 7-9-week-old ICR mouse were purchased from BioLASCO Taiwan Co., Ltd (Taipei, Taiwan).
Linear analysis of the glucose monitoring system: eight concentrations (0, 50, 100, 200, 300, 400, 500, 600 mg/dL) of glucose solution were determined duplicate. The animals were fasted approximately 4 hours before dosing. Then, the animals were administered with the test compounds via oral gavage. After 30 minutes of the test compound dosed, the animals were administered with 1.5 g/kg glucose solution (Concentration: 0.15 g/mL, Dose volume: 10 mL/kg) via oral gavage. The blood glucose was determined before the test compound dosing, before glucose dosing, and after glucose dosing in 5, 15, 20, 25, 30, 40 and 50 minutes.
The results were expressed as means and the statistical significance was evaluated by analysis of variance (ANOVA) followed by least significance difference post hoc test. A level of p<0.05 was considered statistically significant.

[1] = following oral administration; cited from earlier work

| Structure (SMILES) | response versus vehicle control (negative group), p<0.05 (ICR mouse) | Means at 20 min. (mean value of glucose level at 20 min. minus glucose level at time zero, before glucose dosing) (ICR mouse; Test 1, 525 mg/kg oral gavage) | Means at 20 min. (mean value of glucose level at 20 min. minus glucose level at time zero, before glucose dosing) (ICR mouse; Test 2, 1050 mg/kg oral gavage) | blood glucose level as compared with the Vehicle group during the test period (FIG. 5) (ICR mouse) | effect on hyperglycemia in terms of efficacy in lowering blood glucose in animals (ICR mouse; summary of Example 3) | Means at 20 min. (mean value of glucose level at 20 min. minus glucose level at time zero, before glucose dosing) (ICR mouse; 150 mg/kg oral gavage) | absorbed drug eliminated via the renal route within the first 24 hours [1] |
| --- | --- | --- | --- | --- | --- | --- | --- |
| COC(=O)CC[C@@H](C)[C@H]1CC[C@H]2[C@@H]3[C@H](O)C[C@@H]4C[C@H](OC(=O)NC(=N)NC(=N)N(C)C)CC[C@]4(C)[C@H]3C[C@H](O)[C@]12C [Compound 2] | significantly different | 225.8 | 225.8 | lowered | improved hyperglycemia |  |  |
| CN(C)C(=N)N=C(N)N [Metformin Hydrochloride] | significantly different |  |  | lowered |  | 125.4 |  |
| CN(C)C(=N)NC(=N)N [Metformin, N,N-dimethylimidodicarbonimidic diamide] | significantly different |  |  |  |  |  | approximately 90% |
